Where two headings read alike, the source gives them in different places.
What was measured:
NLuc = target: T1, NLuc (Oplophorus gracilirostris, UniProt Q9GV45, A31E/A60N/A81I/F95D/I117V/K70R/L54V/L99Q/M102K/N193R/P142E/Q151K/Q38R/Q45L/V71I/Y165I); format: biochemical; conditions: - ATP
T1 construct: His tag (inferred from IMAC purification); made in house; host or cells: E. coli
In short: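 Luminescence was read 10 min after Nano-Glo reagent addition. Enzyme was 1 nM NLuc in PBS/0.05% IGEPAL buffer, with or without ATP.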

P. pyralis FLuc = P. pyralis FLuc (Photinus pyralis, UniProt P08659); test: FLuc enzymatic luminescence assay, P. pyralis FLuc; format: biochemical; conditions: FLuc enzymatic assay; for IC50: read-out: IC50 or SDR50 (mM) FLuc E
Chain of P. pyralis FLuc (P08659 whole entry): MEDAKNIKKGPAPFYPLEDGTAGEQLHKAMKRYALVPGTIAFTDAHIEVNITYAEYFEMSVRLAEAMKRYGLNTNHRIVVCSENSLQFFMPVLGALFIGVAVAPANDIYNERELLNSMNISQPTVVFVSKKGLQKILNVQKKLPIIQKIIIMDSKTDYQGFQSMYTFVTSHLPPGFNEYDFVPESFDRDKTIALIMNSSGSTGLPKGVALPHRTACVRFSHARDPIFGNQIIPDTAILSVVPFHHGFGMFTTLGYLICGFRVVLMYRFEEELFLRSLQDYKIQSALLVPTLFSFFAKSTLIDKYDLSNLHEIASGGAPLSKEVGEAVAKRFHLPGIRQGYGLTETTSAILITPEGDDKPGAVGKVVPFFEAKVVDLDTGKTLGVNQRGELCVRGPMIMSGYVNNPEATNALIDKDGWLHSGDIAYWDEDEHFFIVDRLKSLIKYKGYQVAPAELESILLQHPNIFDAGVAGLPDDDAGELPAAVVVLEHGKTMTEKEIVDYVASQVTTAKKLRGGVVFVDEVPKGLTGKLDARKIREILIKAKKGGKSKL
In short: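 Runs with and without 10 µM ATP: compounds were pre-incubated with FLuc (1–10 nM, PBS pH 7.4) at ambient temperature, light-protected, for 30–60 min. Luminescence was imaged 5 min after adding 10 µM D-luciferin (final). Inhibition was scaled between DMSO neutral and no-enzyme controls.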

FLuc-C-HiBiT = target: T2, FLuc-C-HiBiT (Photinus pyralis, UniProt P08659); test: biochemical; conditions: enzyme activity, 10 uM ATP; read-out: IC50 or SDR50 (mM) / FLuc E
T2 construct: firefly luciferase with C-terminal HiBiT tag, E. coli expressed
T2 sequence (P08659 whole entry, looked up): as the sequence (P08659 whole entry) above

[1] = target: FLuc-C-NLuc (firefly luciferase) (Photinus pyralis, UniProt P08659, form not given/L550V); test: SDR assay, FLuc-C-NLuc; conditions: - ATP
Chain of FLuc-C-NLuc (firefly luciferase) (P08659 2-550 L550V, form open): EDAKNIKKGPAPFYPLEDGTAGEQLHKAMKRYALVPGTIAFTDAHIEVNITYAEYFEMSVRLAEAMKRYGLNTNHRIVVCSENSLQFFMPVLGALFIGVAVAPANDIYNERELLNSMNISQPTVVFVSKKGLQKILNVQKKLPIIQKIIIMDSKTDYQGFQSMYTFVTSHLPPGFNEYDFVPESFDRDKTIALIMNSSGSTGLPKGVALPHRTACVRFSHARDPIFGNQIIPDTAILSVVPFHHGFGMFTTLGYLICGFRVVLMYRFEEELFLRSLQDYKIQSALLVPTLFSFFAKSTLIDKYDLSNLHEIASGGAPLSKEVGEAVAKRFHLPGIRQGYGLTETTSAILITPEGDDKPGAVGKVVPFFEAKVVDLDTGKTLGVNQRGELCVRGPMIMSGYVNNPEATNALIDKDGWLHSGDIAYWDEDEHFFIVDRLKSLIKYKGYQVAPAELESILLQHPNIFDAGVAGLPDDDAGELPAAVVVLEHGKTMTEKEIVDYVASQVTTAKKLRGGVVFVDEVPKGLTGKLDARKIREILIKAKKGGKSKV

[2] = target: FLuc-C-HiBiT (firefly luciferase) (Photinus pyralis, UniProt P08659, form not given/L550V); test: SDR assay, FLuc-C-HiBiT; conditions: SDR max. response, clade S
Chain of FLuc-C-HiBiT (firefly luciferase) (P08659 2-550 L550V, form open): as above

T1 sequence (Q9GV45 other isoform, or with tags, fused parts or gaps with the stated changes): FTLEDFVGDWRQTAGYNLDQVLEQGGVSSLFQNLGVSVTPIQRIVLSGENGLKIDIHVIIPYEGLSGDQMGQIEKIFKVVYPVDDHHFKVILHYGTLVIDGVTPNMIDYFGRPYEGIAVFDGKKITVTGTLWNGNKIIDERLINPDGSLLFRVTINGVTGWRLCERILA

Compound | Efficacy (%) NLuc (- ATP) (NLuc) [%] | pIC50 or pSDR50 FLuc E (P. pyralis FLuc) | Efficacy (%) FLuc E (P. pyralis FLuc; Clade S follow-up) [%] | IC50 (P. pyralis FLuc) [mM] | IC50 (FLuc-C-HiBiT) [mM] | Efficacy (%) FLuc-C-NLuc SDR (-ATP) [1] [%] | % Activity (max response, + ATP) [2] [%] | % Activity (max response, - ATP) [2] [%] | pIC50 or pSDR50 NLuc (- ATP) (NLuc) | IC50 (NLuc; read-out: IC50 or SDR50 (mM) NLuc (- ATP)) [mM] | pIC50 or pSDR50 FLuc E (P. pyralis FLuc; Clade S follow-up) | IC50 (P. pyralis FLuc; Clade S follow-up) [mM]
CC1CCC(NC(=O)C2CCN(C(=O)c3ncn4c3COC(c3ccccc3)C4)CC2)CC1 (stereo not drawn) [NCGC00449768-01] | 0.00 | 5.71 | -93.28 | 0.00197 | 0.00248 | 0.00 | 387.83 | 0.00 | – | – | – | –
CCCCNC(=O)C1CCN(C(=O)c2ncn3c2COC(c2ccccc2)C3)CC1 (stereo not drawn) [NCGC00449772-01] | 0.00 | 5.11 | -88.46 | 0.00784 | 0.00624 | 0.00 | 357.97 | 0.00 | – | – | – | –
COc1ccccc1CNC(=O)C1CCN(C(=O)c2ncn3c2COC(c2ccccc2)C3)CC1 (stereo not drawn) [NCGC00449776-01] | 0.00 | 5.66 | -78.77 | 0.00221 | 0.00624 | 0.00 | 209.84 | 0.00 | – | – | – | –
CCOc1ccccc1CNC(=O)C1CCN(C(=O)c2ncn3c2COC(c2ccccc2)C3)CC1 (stereo not drawn) [NCGC00449779-01] | 0.00 | 5.21 | -109.28 | 0.00623 | 0.00313 | 0.00 | 223.68 | 0.00 | – | – | – | –
CCOc1cccc(CNC(=O)C2CCN(C(=O)c3ncn4c3COC(c3ccccc3)C4)CC2)c1 (stereo not drawn) [NCGC00449780-01] | 0.00 | 4.96 | -78.48 | 0.0111 | 0.00785 | 0.00 | 197.04 | 0.00 | – | – | – | –
O=C(NCc1ccc2c(c1)OCO2)C1CCN(C(=O)c2ncn3c2COC(c2ccccc2)C3)CC1 (stereo not drawn) [NCGC00449781-01] | 0.00 | 5.51 | -80.20 | 0.00312 | 0.007 | 0.00 | 220.59 | 0.00 | – | – | – | –
CSc1ccc(CNC(=O)C2CCN(C(=O)c3ncn4c3COC(c3ccccc3)C4)CC2)cc1 (stereo not drawn) [NCGC00449782-01] | -35.74 | 5.26 | -89.02 | 0.00555 | 0.00624 | 0.00 | 293.16 | 0.00 | 4.71 | 0.0197 | – | –
O=C(NCc1ccccc1F)C1CCN(C(=O)c2ncn3c2COC(c2ccccc2)C3)CC1 (stereo not drawn) [NCGC00449783-01] | 14.02 | 5.41 | -77.35 | 0.00393 | 0.00351 | 0.00 | 339.74 | 0.00 | – | – | – | –
O=C(NCc1ccc(F)cc1Cl)C1CCN(C(=O)c2ncn3c2COC(c2ccccc2)C3)CC1 (stereo not drawn) [NCGC00449789-01] | 0.00 | 5.01 | -100.38 | 0.00988 | 0.00881 | 0.00 | 205.97 | 0.00 | – | – | – | –
Cc1ccc(NC(=O)C2CCN(C(=O)c3ncn4c3COC(c3ccc(F)cc3)C4)CC2)c(F)c1 (stereo not drawn) [NCGC00449944-01] | 0.00 | – | -69.67 | – | – | 0.00 | 140.99 | 7.55 | – | – | 4.96 | 0.0111
